ChEMBL document CHEMBL6114972, “Proteolysis targeting chimera of BI-2536 induces potent dual degradation of PLK1 and BET proteins” (Bioorg Med Chem, 2025)
Active and inactive are the calls of the source. The calls are words filed in the database; no cut-off is given here.

How the values were obtained:
[1] = target: T1, Protein cereblon/Bromodomain-containing protein 3 (Homo sapiens, UniProt Q15059+Q96SW2); test: Protac activity at CRBN/BRD3 in human 22Rv1 cells assessed as BRD3 degradation measured after 36 hrs by Western blot analysis relative to control; assay type: cell-based
Target sequence in this assay (Q15059 2-726 limits assumed): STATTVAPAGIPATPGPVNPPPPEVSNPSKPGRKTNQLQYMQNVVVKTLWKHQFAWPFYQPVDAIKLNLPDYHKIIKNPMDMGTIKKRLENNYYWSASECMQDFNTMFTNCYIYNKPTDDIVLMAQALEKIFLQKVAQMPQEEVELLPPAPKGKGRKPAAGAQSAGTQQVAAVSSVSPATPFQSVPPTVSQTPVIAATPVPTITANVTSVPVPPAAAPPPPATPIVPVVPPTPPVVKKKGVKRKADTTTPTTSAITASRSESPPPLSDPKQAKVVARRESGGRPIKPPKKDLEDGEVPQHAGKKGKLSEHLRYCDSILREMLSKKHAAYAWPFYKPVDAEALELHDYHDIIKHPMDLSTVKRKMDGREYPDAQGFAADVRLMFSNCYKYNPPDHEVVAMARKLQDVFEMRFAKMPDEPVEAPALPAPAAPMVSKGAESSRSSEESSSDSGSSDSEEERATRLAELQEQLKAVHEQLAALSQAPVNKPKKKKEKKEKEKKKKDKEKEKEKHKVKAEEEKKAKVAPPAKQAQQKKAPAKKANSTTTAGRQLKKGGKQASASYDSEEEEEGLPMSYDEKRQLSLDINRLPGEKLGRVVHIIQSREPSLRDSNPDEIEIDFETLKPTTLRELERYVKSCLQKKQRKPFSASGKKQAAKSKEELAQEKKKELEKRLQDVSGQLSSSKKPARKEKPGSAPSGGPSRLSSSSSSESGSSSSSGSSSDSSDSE
Target sequence in this assay (Q96SW2 whole entry partner): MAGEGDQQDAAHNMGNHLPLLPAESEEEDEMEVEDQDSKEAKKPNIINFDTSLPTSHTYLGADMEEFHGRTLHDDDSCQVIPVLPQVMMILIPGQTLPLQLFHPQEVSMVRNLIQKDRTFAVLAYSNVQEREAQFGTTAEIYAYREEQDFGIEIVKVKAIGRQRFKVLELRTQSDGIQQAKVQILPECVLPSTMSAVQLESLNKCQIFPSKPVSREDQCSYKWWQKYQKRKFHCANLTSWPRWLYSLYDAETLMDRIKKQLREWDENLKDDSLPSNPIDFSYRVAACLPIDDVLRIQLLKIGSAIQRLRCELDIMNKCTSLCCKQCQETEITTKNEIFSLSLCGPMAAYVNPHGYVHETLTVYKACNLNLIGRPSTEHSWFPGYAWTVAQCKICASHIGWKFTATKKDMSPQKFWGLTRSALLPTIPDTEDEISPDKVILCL

[2] = target: T2, Protein cereblon/Bromodomain-containing protein 4 (Homo sapiens, UniProt O60885+Q96SW2); test: Protac activity at CRBN/BRD4 in human 22Rv1 cells assessed as BRD4 degradation at 50 nM measured after 4 hrs by Western blot analysis; assay type: cell-based
[3] = target: T1, Protein cereblon/Bromodomain-containing protein 3; test: Protac activity at CRBN/BRD3 in human HeLa cells assessed as BRD3 degradation at 3 nM measured after 36 hrs by Western blot analysis; assay type: cell-based
Target sequence in this assay (Q15059 2-726 limits assumed): as the sequence (Q15059 2-726 limits assumed) above
Target sequence in this assay (Q96SW2 whole entry partner): as the sequence (Q96SW2 whole entry partner) above

[4] = target: T3, Protein cereblon/Bromodomain-containing protein 2 (Homo sapiens, UniProt P25440+Q96SW2); test: Protac activity at CRBN/BRD2 in human 22Rv1 cells assessed as BRD2 degradation measured after 36 hrs by Western blot analysis relative to control; assay type: cell-based
Target sequence in this assay (P25440 whole entry, looked up): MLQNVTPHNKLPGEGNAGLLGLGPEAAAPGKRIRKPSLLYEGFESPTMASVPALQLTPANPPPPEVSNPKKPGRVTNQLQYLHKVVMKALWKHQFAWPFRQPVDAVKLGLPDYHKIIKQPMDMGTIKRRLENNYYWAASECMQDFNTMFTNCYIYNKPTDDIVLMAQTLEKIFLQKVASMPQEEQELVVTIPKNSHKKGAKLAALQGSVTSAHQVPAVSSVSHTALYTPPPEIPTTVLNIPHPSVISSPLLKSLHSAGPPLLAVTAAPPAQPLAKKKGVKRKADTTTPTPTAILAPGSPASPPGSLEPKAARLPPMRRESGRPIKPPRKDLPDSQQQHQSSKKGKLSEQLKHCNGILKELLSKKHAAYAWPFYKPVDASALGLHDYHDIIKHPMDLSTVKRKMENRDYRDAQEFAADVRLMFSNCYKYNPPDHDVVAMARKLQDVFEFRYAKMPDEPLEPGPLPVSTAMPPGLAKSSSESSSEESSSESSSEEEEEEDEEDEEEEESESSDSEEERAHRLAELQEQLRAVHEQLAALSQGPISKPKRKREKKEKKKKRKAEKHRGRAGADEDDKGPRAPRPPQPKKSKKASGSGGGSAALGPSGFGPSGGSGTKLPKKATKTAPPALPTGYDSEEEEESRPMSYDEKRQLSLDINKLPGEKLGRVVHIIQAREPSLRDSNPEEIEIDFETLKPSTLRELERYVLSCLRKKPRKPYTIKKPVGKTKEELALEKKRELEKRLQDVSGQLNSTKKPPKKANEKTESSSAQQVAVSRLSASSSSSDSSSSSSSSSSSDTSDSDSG
Target sequence in this assay (Q96SW2 whole entry, looked up): as the sequence (Q96SW2 whole entry partner) above

[5] = target: T2, Protein cereblon/Bromodomain-containing protein 4; test: Protac activity at CRBN/BRD4 in human HeLa cells assessed as BRD4 degradation at 10 nM measured after 36 hrs by Western blot analysis; assay type: cell-based
[6] = target: T3, Protein cereblon/Bromodomain-containing protein 2; test: Protac activity at CRBN/BRD2 in human 22Rv1 cells assessed as BRD2 degradation measured after 36 hrs by Western blot analysis; assay type: cell-based
Target sequence in this assay (P25440 whole entry): as the sequence (P25440 whole entry, looked up) above
Target sequence in this assay (Q96SW2 whole entry): as the sequence (Q96SW2 whole entry partner) above

CWR22R [7] = test: Effect on P21 mRNA expression in human 22Rv1 cells at 20 to 100 nM measured after 36 hrs by RT-qPCR analysis; assay type: functional, cell-based; settings: dose 20-100 nM
HeLa = test: Cytotoxicity against human HeLa cells assessed as reduction in cell viability measured after 3 days by CCK-8 assay; assay type: functional, cell-based; settings: 72 h
[8] = target: T3, Protein cereblon/Bromodomain-containing protein 2; test: Protac activity at CRBN/BRD2 in human HeLa cells assessed as BRD2 degradation measured after 36 hrs by Western blot analysis relative to control; assay type: cell-based
Target sequence in this assay (P25440 whole entry, looked up): as the sequence (P25440 whole entry, looked up) above
Target sequence in this assay (Q96SW2 whole entry, looked up): as the sequence (Q96SW2 whole entry partner) above

[9] = target: T4, Protein cereblon/Serine/threonine-protein kinase PLK1 (Homo sapiens, UniProt P53350+Q96SW2); test: Protac activity at CRBN/PLK1 in human MDA-MB-231 cells assessed as PLK1 degradation at 10 nM measured after 36 hrs by Western blot analysis; assay type: cell-based
Target sequence in this assay (P53350 2-603 limits assumed): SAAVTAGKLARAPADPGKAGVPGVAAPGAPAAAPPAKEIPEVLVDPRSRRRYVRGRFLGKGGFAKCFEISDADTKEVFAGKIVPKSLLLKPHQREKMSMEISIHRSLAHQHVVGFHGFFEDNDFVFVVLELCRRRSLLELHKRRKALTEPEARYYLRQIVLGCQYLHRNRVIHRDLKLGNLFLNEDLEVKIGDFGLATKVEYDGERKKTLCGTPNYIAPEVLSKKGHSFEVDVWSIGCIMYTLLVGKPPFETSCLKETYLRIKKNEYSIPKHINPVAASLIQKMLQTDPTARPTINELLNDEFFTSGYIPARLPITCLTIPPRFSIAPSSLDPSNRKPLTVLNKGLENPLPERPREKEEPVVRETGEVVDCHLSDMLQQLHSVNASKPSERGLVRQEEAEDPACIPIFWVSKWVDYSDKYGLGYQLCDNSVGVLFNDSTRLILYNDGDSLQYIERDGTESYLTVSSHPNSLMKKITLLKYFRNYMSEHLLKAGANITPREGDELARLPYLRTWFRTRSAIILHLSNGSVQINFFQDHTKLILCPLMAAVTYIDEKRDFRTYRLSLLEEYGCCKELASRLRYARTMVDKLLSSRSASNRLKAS
Target sequence in this assay (Q96SW2 whole entry partner): as the sequence (Q96SW2 whole entry partner) above

[10] = target: T3, Protein cereblon/Bromodomain-containing protein 2; test: Protac activity at CRBN/BRD2 in human HeLa cells assessed as BRD2 degradation measured after 36 hrs by Western blot analysis; assay type: cell-based
Target sequence in this assay (P25440 whole entry): as the sequence (P25440 whole entry, looked up) above
Target sequence in this assay (Q96SW2 whole entry): as the sequence (Q96SW2 whole entry partner) above

[11] = target: T4, Protein cereblon/Serine/threonine-protein kinase PLK1; test: Protac activity at CRBN/PLK1 in human HeLa cells assessed as PLK1 degradation at 10 to 500 nM measured after 36 hrs by Western blot analysis; assay type: cell-based; settings: dose 10-500 nM
Target sequence in this assay (P53350 2-603 limits assumed): as the sequence (P53350 2-603 limits assumed) above
Target sequence in this assay (Q96SW2 whole entry partner): as the sequence (Q96SW2 whole entry partner) above

[12] = target: T4, Protein cereblon/Serine/threonine-protein kinase PLK1; test: Protac activity at CRBN/PLK1 in human 22Rv1 cells assessed as PLK1 degradation at 10 to 500 nM measured after 36 hrs by Western blot analysis; assay type: cell-based; settings: dose 10-500 nM
Target sequence in this assay (P53350 2-603 limits assumed): as the sequence (P53350 2-603 limits assumed) above
Target sequence in this assay (Q96SW2 whole entry partner): as the sequence (Q96SW2 whole entry partner) above

[13] = target: T2, Protein cereblon/Bromodomain-containing protein 4; test: Protac activity at CRBN/BRD4 in human HeLa cells assessed as BRD4 degradation at 500 nM measured after 12 hrs by Western blot analysis; assay type: cell-based
[14] = target: T2, Protein cereblon/Bromodomain-containing protein 4; test: Protac activity at CRBN/BRD4 in human MDA-MB-231 cells assessed as BRD4 degradation at 10 nM measured after 36 hrs by Western blot analysis; assay type: cell-based
[15] = target: T2, Protein cereblon/Bromodomain-containing protein 4; test: Protac activity at CRBN/BRD4 in human HeLa cells assessed as BRD4 degradation at 20 nM measured after 24 hrs by Western blot analysis; assay type: cell-based
[16] = target: T4, Protein cereblon/Serine/threonine-protein kinase PLK1; test: Protac activity at CRBN/PLK1 in human HeLa cells assessed as PLK1 degradation at 500 nM measured after 36 hrs by Western blot analysis; assay type: cell-based
Target sequence in this assay (P53350 2-603 limits assumed): as the sequence (P53350 2-603 limits assumed) above
Target sequence in this assay (Q96SW2 whole entry partner): as the sequence (Q96SW2 whole entry partner) above

K562 = test: Cytotoxicity against human K562 cells assessed as reduction in cell viability measured after 3 days by CCK-8 assay; assay type: functional, cell-based; settings: K562, 72 h
[17] = target: T3, Protein cereblon/Bromodomain-containing protein 2; test: Protac activity at CRBN/BRD2 in human HeLa cells assessed as BRD2 degradation at 3 nM measured after 36 hrs by Western blot analysis; assay type: cell-based
Target sequence in this assay (P25440 whole entry, looked up): as the sequence (P25440 whole entry, looked up) above
Target sequence in this assay (Q96SW2 whole entry, looked up): as the sequence (Q96SW2 whole entry partner) above

CWR22R [18] = test: Down regulation of XIAP mRNA expression in human 22Rv1 cells at 20 to 100 nM measured after 36 hrs by RT-qPCR analysis; assay type: functional, cell-based; settings: dose 20-100 nM
[19] = target: T1, Protein cereblon/Bromodomain-containing protein 3; test: Protac activity at CRBN/BRD3 in human 22Rv1 cells assessed as BRD3 degradation measured after 36 hrs by Western blot analysis; assay type: cell-based
[20] = target: T2, Protein cereblon/Bromodomain-containing protein 4; test: Protac activity at CRBN/BRD4 in human 22Rv1 cells assessed as BRD4 degradation measured after 36 hrs by Western blot analysis relative to control; assay type: cell-based
[21] = target: T2, Protein cereblon/Bromodomain-containing protein 4; test: Protac activity at CRBN/BRD4 in human 22Rv1 cells assessed as down regulation of MYC gene expression at 20 to 100 nM measured after 36 hrs by RT-qPCR analysis; assay type: cell-based; settings: dose 20-100 nM
CWR22R [22] = test: Antiproliferative activity against human 22Rv1 cells assessed as reduction in cell viability up to 100000 nM incubated for 24 hrs prior to compound washout measured after 1 week by crystal violet staining based assay; assay type: functional
[23] = target: T4, Protein cereblon/Serine/threonine-protein kinase PLK1; test: Protac activity at CRBN/PLK1 in human 22Rv1 cells assessed as PLK1 degradation measured after 36 hrs by Western blot analysis relative to control; assay type: cell-based
Target sequence in this assay (P53350 2-603 limits assumed): as the sequence (P53350 2-603 limits assumed) above
Target sequence in this assay (Q96SW2 whole entry partner): as the sequence (Q96SW2 whole entry partner) above

[24] = target: T4, Protein cereblon/Serine/threonine-protein kinase PLK1; test: Protac activity at CRBN/PLK1 in human HeLa cells assessed as PLK1 degradation measured after 36 hrs by Western blot analysis relative to control; assay type: cell-based
Target sequence in this assay (P53350 2-603 limits assumed): as the sequence (P53350 2-603 limits assumed) above
Target sequence in this assay (Q96SW2 whole entry partner): as the sequence (Q96SW2 whole entry partner) above

[25] = target: T4, Protein cereblon/Serine/threonine-protein kinase PLK1; test: Protac activity at CRBN/PLK1 in human HeLa cells assessed as PLK1 degradation at 10 nM measured after 36 hrs by Western blot analysis; assay type: cell-based
[26] = target: T2, Protein cereblon/Bromodomain-containing protein 4; test: Protac activity at CRBN/BRD4 in human K562 cells assessed as BRD4 degradation at 10 nM measured after 36 hrs by Western blot analysis; assay type: cell-based
[27] = target: T2, Protein cereblon/Bromodomain-containing protein 4; test: Protac activity at CRBN/BRD4 in human 22Rv1 cells assessed as BRD4 degradation measured after 36 hrs by Western blot analysis; assay type: cell-based
[28] = target: T2, Protein cereblon/Bromodomain-containing protein 4; test: Protac activity at CRBN/BRD4 in human HeLa cells assessed as BRD4 degradation at 3 nM measured after 36 hrs by Western blot analysis; assay type: cell-based
[29] = target: T4, Protein cereblon/Serine/threonine-protein kinase PLK1; test: Protac activity at CRBN/PLK1 in human HeLa cells assessed as PLK1 degradation measured after 36 hrs by Western blot analysis; assay type: cell-based
[30] = target: T4, Protein cereblon/Serine/threonine-protein kinase PLK1; test: Protac activity at CRBN/PLK1 in human 22Rv1 cells assessed as PLK1 degradation at 50 nM measured after 36 hrs by Western blot analysis; assay type: cell-based
CWR22R [31] = test: Down regulation of PRDM1 mRNA expression in human 22Rv1 cells at 20 to 100 nM measured after 36 hrs by RT-qPCR analysis; assay type: functional, cell-based; settings: dose 20-100 nM
[32] = target: T2, Protein cereblon/Bromodomain-containing protein 4; test: Protac activity at CRBN/BRD4 in human HeLa cells assessed as BRD4 degradation measured after 36 hrs by Western blot analysis relative to control; assay type: cell-based
CWR22R [33] = test: Down regulation of Bcl-2 mRNA expression in human 22Rv1 cells at 20 to 100 nM measured after 36 hrs by RT-qPCR analysis; assay type: functional, cell-based; settings: dose 20-100 nM
CWR22R [34] = test: Cytotoxicity against human 22Rv1 cells assessed as reduction in cell viability measured after 3 days by CCK-8 assay; assay type: functional, cell-based; settings: 22Rv1, 72 h
[35] = target: T4, Protein cereblon/Serine/threonine-protein kinase PLK1; test: Protac activity at CRBN/PLK1 in human HeLa cells assessed as PLK1 degradation at 500 nM measured after 12 hrs by Western blot analysis; assay type: cell-based
[36] = target: T1, Protein cereblon/Bromodomain-containing protein 3; test: Protac activity at CRBN/BRD3 in human HeLa cells assessed as BRD3 degradation measured after 36 hrs by Western blot analysis; assay type: cell-based
[37] = target: T4, Protein cereblon/Serine/threonine-protein kinase PLK1; test: Protac activity at CRBN/PLK1 in human 22Rv1 cells assessed as PLK1 degradation measured after 36 hrs by Western blot analysis; assay type: cell-based
[38] = target: T4, Protein cereblon/Serine/threonine-protein kinase PLK1; test: Protac activity at CRBN/PLK1 in human 22Rv1 cells assessed as PLK1 degradation at 2 uM measured after 12 to 24 hrs by Western blot analysis; assay type: cell-based; settings: time 12-24 hrs
[39] = target: T2, Protein cereblon/Bromodomain-containing protein 4; test: Protac activity at CRBN/BRD4 in human 22Rv1 cells assessed as BRD4 degradation at 50 nM measured after 2 hrs by Western blot analysis; assay type: cell-based
[40] = target: T4, Protein cereblon/Serine/threonine-protein kinase PLK1; test: Protac activity at CRBN/PLK1 in human 22Rv1 cells assessed as PLK1 degradation at 50 nM measured after 24 hrs by Western blot analysis; assay type: cell-based
[41] = target: T2, Protein cereblon/Bromodomain-containing protein 4; test: Protac activity at CRBN/BRD4 in human HeLa cells assessed as BRD4 degradation measured after 36 hrs by Western blot analysis; assay type: cell-based
[42] = target: T4, Protein cereblon/Serine/threonine-protein kinase PLK1; test: Protac activity at CRBN/PLK1 in human K562 cells assessed as PLK1 degradation at 10 nM measured after 36 hrs by Western blot analysis; assay type: cell-based
[43] = target: T1, Protein cereblon/Bromodomain-containing protein 3; test: Protac activity at CRBN/BRD3 in human HeLa cells assessed as BRD3 degradation measured after 36 hrs by Western blot analysis relative to control; assay type: cell-based
Target sequence in this assay (Q15059 2-726 limits assumed): as the sequence (Q15059 2-726 limits assumed) above
Target sequence in this assay (Q96SW2 whole entry partner): as the sequence (Q96SW2 whole entry partner) above

[44] = target: T4, Protein cereblon/Serine/threonine-protein kinase PLK1; test: Protac activity at CRBN/PLK1 in human HeLa cells assessed as PLK1 degradation at 200 nM measured after 24 hrs by Western blot analysis; assay type: cell-based
MDA-MB-231 = test: Cytotoxicity against human MDA-MB-231 cells assessed as reduction in cell viability measured after 3 days by CCK-8 assay; assay type: functional, cell-based; settings: MDA-MB-231, 72 h

T2 sequence (Q96SW2 whole entry, looked up, other chains not shown): as the sequence (Q96SW2 whole entry partner) above

## CC[C@@H]1C(=O)N(C)c2cnc(Nc3ccc(C(=O)NC4CCN(CCCCCCCC(=O)Nc5cccc6c5C(=O)N(C5CCC(=O)NC5=O)C6=O)CC4)cc3OC)nc2N1C1CCCC1 (some centres not stated)
[1]
  Activity: 89.9%
[2]
  Activity: Active; Near-Complete Depletion Of Brd4 Observed
[3]
  Activity: Active
[4]
  Activity: 91.5%
[5]
  Activity: Active
[6]
  DC50: 1.63 nM
CWR22R [7]
  Activity: inactive
HeLa
  IC50: 44 nM
[8]
  Activity: 82.8%
[9]
  Activity: Active
[10]
  DC50: 6.45 nM
[11]
  Activity: Active; Higher Degradation Observed At 36 Hrs
[12]
  Activity: Active; Higher Degradation Observed At 36 Hrs
[13]
  Activity: 95%
[14]
  Activity: Active
[15]
  Activity: Active; Demonstrated Most Potent Efficacy
[16]
  Activity: 92%
K562
  IC50: 52 nM
[17]
  Activity: Active
CWR22R [18]
  Activity: Active
[19]
  DC50: 9.45 nM
[20]
  Activity: 96.5%
[21]
  Activity: Active; Nearly Complete Down Regulation Observed At 20 Nm
CWR22R [22]
  Activity: Active; Antiproliferative Effect Was Enhanced Even After 1 Week
[23]
  Activity: 78%
[24]
  Activity: 78.6%
[25]
  Activity: Active
[26]
  Activity: Active
[27]
  DC50: 1.56 nM
[28]
  Activity: Active
[29]
  DC50: 1.64 nM
[30]
  Activity: Active; Profound Degradation Observed
CWR22R [31]
  Activity: Active
[32]
  Activity: 93.4%
CWR22R [33]
  Activity: Active
CWR22R [34]
  IC50: 45 nM
[35]
  Activity: 28%
[36]
  DC50: 1.74 nM
[37]
  DC50: 4.68 nM
[38]
  Activity: Active
[39]
  Activity: Active; Effectively Reduced The Protein Level
[40]
  Activity: Not active; No Significant Effect Observed
[41]
  DC50: 1.03 nM
[42]
  Activity: Active
[43]
  Activity: 93.3%
[44]
  Activity: Active; Moderate Effect Observed
MDA-MB-231
  IC50: 274 nM
